{"source": "patent US20090030086A1", "about": "“ANTIMICROBIAL AGENTS” (priority 2005, published 2009)", "key": {"S. aureus ATCC 29213 [1]": {"test_system": "S. aureus ATCC 29213", "assay": "MIC assay", "format": "cell-based, Staphylococcus aureus", "procedure,_shortened": "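Broth microdilution in Mueller-Hinton broth at pH 7.2, incubated aerobically at 37 °C for 24 h and run in duplicate with medium-only and solvent/inoculum controls. The MIC was the lowest concentration whose well stayed visibly clear.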"}, "P. acnes NCTC 737 [2]": {"test_system": "P. acnes NCTC 737", "assay": "MIC assay", "format": "cell-based, Propionibacterium acnes", "procedure,_shortened": "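Broth microdilution in Wilkins-Chalgren Anaerobe broth pH 6.0, inoculated with freshly grown P. acnes NCTC 737 and incubated anaerobically at 37° C for 72 hours. MIC is the lowest compound concentration leaving the well visually clear, read on a light box. Run in duplicate with medium-only and solvent-plus-inoculum controls.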"}, "S. aureus ATCC 29213 [3]": {"test_system": "S. aureus ATCC 29213", "assay": "Supplemented disc diffusion assay", "format": "cell-based, Staphylococcus aureus", "details": "for zone of inhibition at 200 µg/disc: Staphylococcus aureus, ATCC29213, 24 h", "procedure,_shortened": "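Paper discs loaded with compound (200 μg per disc for most assays) placed on inoculated Mueller-Hinton agar, pH 7.2, supplemented with 5% v/v defibrinated horse blood, 1% v/v Tween 80 and 100 mM NaCl. Aerobic incubation at 37° C for 24 h; inhibition zone diameter measured.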"}, "P. acnes NCTC 737 [4]": {"test_system": "P. acnes NCTC 737", "assay": "Supplemented disc diffusion assay", "format": "cell-based, Propionibacterium acnes", "details": "for zone of inhibition at 200 µg/disc: Cutibacterium acnes, NCTC737, 72 h; for effect of lipid on antimicrobial activity: activity increases in the presence of lipid", "procedure,_shortened": "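Propionibacterium discs loaded with 200 μg compound on Wilkins-Chalgren Anaerobe agar, pH 6.0, supplemented with Tween 80 (1% v/v) and NaCl (100 mM); anaerobic incubation at 37 °C for 72 h. Inhibition zone diameter measured by automated zone sizer.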"}, "P. acnes NCTC 737 [5]": {"test_system": "P. acnes NCTC 737", "assay": "Disc diffusion assay (DDA)", "format": "cell-based, Propionibacterium acnes", "details": "for zone of inhibition at 200 µg/disc: Cutibacterium acnes"}, "S. aureus ATCC 29213 [6]": {"test_system": "S. aureus ATCC 29213", "assay": "MBC assay", "format": "cell-based, Staphylococcus aureus", "procedure,_shortened": "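Follows an MIC assay; samples sub-cultured onto non-selective agar and inspected visually for growth to give the minimum lethal concentration. Culture on Mueller-Hinton medium, pH 7.2, aerobic, 37° C, 24 hours.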"}, "P. acnes NCTC 737 [7]": {"test_system": "P. acnes NCTC 737", "assay": "MBC assay", "format": "cell-based, Propionibacterium acnes", "procedure,_shortened": "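Plates were then checked visually for growth. The MBC is the lowest lethal concentration; cultures were grown on Wilkins-Chalgren Anaerobe Medium at pH 6.0.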"}, "S. aureus ATCC 29213 [8]": {"test_system": "S. aureus ATCC 29213", "assay": "Disc diffusion assay (DDA)", "format": "cell-based, Staphylococcus aureus", "details": "for zone of inhibition at 200 µg/disc: Staphylococcus aureus", "procedure,_shortened": "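Paper discs loaded with test compound (usually 200 μg/disc), solvent evaporated ≥30 min, placed on inoculated Mueller-Hinton agar pH 7.2. Incubated aerobically at 37 °C for 24 h; inhibition zone diameter measured and area calculated as π(D/2)^2.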"}}, "note": "Where two headings read alike, the source gives them in different places."}
{"smiles": "COC1=C(OC)C(=O)C(C)=CC1=O", "note": "[2,3-dimethoxy-5-methyl-p-benzoquinone]", "values": [{"measurement": "MIC", "setting": "S. aureus ATCC 29213 [1]; Staphylococcus aureus, ATCC29213, S. aureus ATCC 29213, Mueller-Hinton broth pH 7.2, aerobic, 37° C., 24 hours, read-out: MIC", "result": 7.8, "unit": "µg/mL"}, {"measurement": "MIC", "setting": "P. acnes NCTC 737 [2]; Cutibacterium acnes, NCTC737, P. acnes NCTC 737, Wilkins-Chalgren broth pH 6.0, anaerobic, 37° C., 72 hours, read-out: MIC", "result": 15.6, "unit": "µg/mL"}, {"measurement": "zone of inhibition at 200 µg/disc", "setting": "S. aureus ATCC 29213 [3]; S. aureus ATCC 29213, Tween 80 at 1% v/v, 200 μg per disc (thymoquinone 50 μg, 2,6-dimethoxy-p-benzoquinone 100 μg), read-out: DDA + lipid", "result": 26.5, "unit": "mm"}, {"measurement": "zone of inhibition at 200 µg/disc", "setting": "S. aureus ATCC 29213 [3]; S. aureus ATCC 29213, defibrinated horse blood 5% v/v, 200 μg per disc (thymoquinone 50 μg, 2,6-dimethoxy-p-benzoquinone 100 μg), read-out: DDA + blood", "result": 19.9, "unit": "mm"}, {"measurement": "zone of inhibition at 200 µg/disc", "setting": "S. aureus ATCC 29213 [3]; S. aureus ATCC 29213, sodium chloride 100 mM, 200 μg per disc (thymoquinone 50 μg, 2,6-dimethoxy-p-benzoquinone 100 μg), read-out: DDA + salt", "result": 25.8, "unit": "mm"}, {"measurement": "zone of inhibition at 200 µg/disc", "setting": "P. acnes NCTC 737 [4]; P. acnes NCTC 737, Tween 80 at 1% v/v, 200 μg per disc (2,6-dimethoxy-p-benzoquinone 100 μg), read-out: DDA + lipid", "result": 44, "unit": "mm"}, {"measurement": "zone of inhibition at 200 µg/disc", "setting": "P. acnes NCTC 737 [4]; P. acnes NCTC 737, sodium chloride 100 mM, 200 μg per disc (2,6-dimethoxy-p-benzoquinone 100 μg), read-out: DDA + salt", "result": 43.4, "unit": "mm"}, {"measurement": "effect of lipid on antimicrobial activity", "setting": "P. acnes NCTC 737 [4]; P. acnes NCTC 737", "result": "potentiated"}, {"measurement": "zone of inhibition at 200 µg/disc", "setting": "P. acnes NCTC 737 [5]; NCTC737, P. acnes NCTC 737, unsupplemented agar, 200 μg per disc (2,6-dimethoxy-p-benzoquinone 100 μg), read-out: DDA (diameter of zone of inhibition)", "result": 33.4, "unit": "mm"}, {"measurement": "MIC/MBC ratio", "setting": "S. aureus ATCC 29213 [6]", "result": 0.5}, {"measurement": "MBC", "setting": "S. aureus ATCC 29213 [6]; Staphylococcus aureus, ATCC29213, read-out: MBC", "result": 15.6, "unit": "µg/mL"}, {"measurement": "MBC", "setting": "P. acnes NCTC 737 [7]; Cutibacterium acnes, NCTC737, P. acnes NCTC 737, read-out: MBC", "result": 31.2, "unit": "µg/mL"}, {"measurement": "MIC/MBC ratio", "setting": "P. acnes NCTC 737 [7]; P. acnes NCTC 737", "result": 0.5}, {"measurement": "zone of inhibition at 200 µg/disc", "setting": "S. aureus ATCC 29213 [8]; ATCC29213, S. aureus ATCC 29213, unsupplemented agar, 200 μg per disc (thymoquinone 50 μg, 2,6-dimethoxy-p-benzoquinone 100 μg), read-out: DDA (diameter of zone of inhibition)", "result": 26.8, "unit": "mm"}]}
{"smiles": "O=C1C=CC(=O)C(Cl)=C1", "note": "[2-chloro-p-benzoquinone]", "values": [{"measurement": "MIC", "setting": "S. aureus ATCC 29213 [1]; Staphylococcus aureus, ATCC29213, 24 h, pH 7.2", "result": 31.2, "unit": "µg/mL"}, {"measurement": "activity against P. acnes NCTC 737 (in words)", "setting": "P. acnes NCTC 737 [2]", "result": "strongly so"}, {"measurement": "MIC", "setting": "P. acnes NCTC 737 [2]; Cutibacterium acnes, NCTC737, 72 h, pH 6", "result": 62.5, "unit": "µg/mL"}, {"measurement": "zone of inhibition at 200 µg/disc", "setting": "S. aureus ATCC 29213 [3]; read-out: DDA + blood", "result": 17.2, "unit": "mm"}, {"measurement": "zone of inhibition at 200 µg/disc", "setting": "S. aureus ATCC 29213 [3]; read-out: DDA + lipid", "result": 22.8, "unit": "mm"}, {"measurement": "zone of inhibition at 200 µg/disc", "setting": "S. aureus ATCC 29213 [3]; read-out: DDA + salt", "result": 26.2, "unit": "mm"}, {"measurement": "zone of inhibition at 200 µg/disc", "setting": "P. acnes NCTC 737 [4]; read-out: DDA + lipid", "result": 31.4, "unit": "mm"}, {"measurement": "zone of inhibition at 200 µg/disc", "setting": "P. acnes NCTC 737 [4]; read-out: DDA + salt", "result": 31.7, "unit": "mm"}, {"measurement": "effect of lipid on antimicrobial activity", "setting": "P. acnes NCTC 737 [4]; P. acnes NCTC 737", "result": "potentiated"}, {"measurement": "zone of inhibition at 200 µg/disc", "setting": "P. acnes NCTC 737 [5]; NCTC737, read-out: DDA (diameter of zone of inhibition)", "result": 25.8, "unit": "mm"}, {"measurement": "MIC/MBC ratio", "setting": "S. aureus ATCC 29213 [6]", "result": 1}, {"measurement": "MBC", "setting": "S. aureus ATCC 29213 [6]; Staphylococcus aureus, ATCC29213", "result": 31.2, "unit": "µg/mL"}, {"measurement": "MBC", "setting": "P. acnes NCTC 737 [7]; Cutibacterium acnes, NCTC737", "result": 125, "unit": "µg/mL"}, {"measurement": "MIC/MBC ratio", "setting": "P. acnes NCTC 737 [7]; P. acnes NCTC 737", "result": 0.5}, {"measurement": "zone of inhibition at 200 µg/disc", "setting": "S. aureus ATCC 29213 [8]; ATCC29213, read-out: DDA (diameter of zone of inhibition)", "result": 25.3, "unit": "mm"}]}
{"smiles": "Oc1cc(Cl)c(O)cc1Cl", "note": "[2,5-dichloro-p-hydroquinone]", "values": [{"measurement": "MIC", "setting": "S. aureus ATCC 29213 [1]; S. aureus ATCC 29213, Mueller-Hinton broth pH 7.2, aerobic, 37° C., 24 hours", "result": 15.6, "unit": "µg/mL"}, {"measurement": "MIC", "setting": "P. acnes NCTC 737 [2]; P. acnes NCTC 737, Wilkins-Chalgren broth pH 6.0, anaerobic, 37° C., 72 hours", "result": 62.5, "unit": "µg/mL"}, {"measurement": "DDA + lipid", "setting": "S. aureus ATCC 29213 [3]; S. aureus ATCC 29213, Tween 80 at 1% v/v, 200 μg per disc (thymoquinone 50 μg, 2,6-dimethoxy-p-benzoquinone 100 μg)", "result": 15.63, "unit": "mm"}, {"measurement": "DDA + blood", "setting": "S. aureus ATCC 29213 [3]; S. aureus ATCC 29213, defibrinated horse blood 5% v/v, 200 μg per disc (thymoquinone 50 μg, 2,6-dimethoxy-p-benzoquinone 100 μg)", "result": 13.44, "unit": "mm"}, {"measurement": "DDA + salt", "setting": "S. aureus ATCC 29213 [3]; S. aureus ATCC 29213, sodium chloride 100 mM, 200 μg per disc (thymoquinone 50 μg, 2,6-dimethoxy-p-benzoquinone 100 μg)", "result": 18.75, "unit": "mm"}, {"measurement": "DDA + lipid", "setting": "P. acnes NCTC 737 [4]; P. acnes NCTC 737, Tween 80 at 1% v/v, 200 μg per disc (2,6-dimethoxy-p-benzoquinone 100 μg)", "result": 0.0, "unit": "mm"}, {"measurement": "DDA + salt", "setting": "P. acnes NCTC 737 [4]; P. acnes NCTC 737, sodium chloride 100 mM, 200 μg per disc (2,6-dimethoxy-p-benzoquinone 100 μg)", "result": 18.64, "unit": "mm"}, {"measurement": "DDA (diameter of zone of inhibition)", "setting": "P. acnes NCTC 737 [5]; P. acnes NCTC 737, unsupplemented agar, 200 μg per disc (2,6-dimethoxy-p-benzoquinone 100 μg)", "result": 13.46, "unit": "mm"}, {"measurement": "MBC", "setting": "S. aureus ATCC 29213 [6]", "result": 15.6, "unit": "µg/mL"}, {"measurement": "MIC/MBC ratio", "setting": "S. aureus ATCC 29213 [6]", "result": 1}, {"measurement": "MBC", "setting": "P. acnes NCTC 737 [7]; P. acnes NCTC 737", "result": 62.5, "unit": "µg/mL"}, {"measurement": "MIC/MBC ratio", "setting": "P. acnes NCTC 737 [7]; P. acnes NCTC 737", "result": 1}, {"measurement": "DDA (diameter of zone of inhibition)", "setting": "S. aureus ATCC 29213 [8]; S. aureus ATCC 29213, unsupplemented agar, 200 μg per disc (thymoquinone 50 μg, 2,6-dimethoxy-p-benzoquinone 100 μg)", "result": 19.90, "unit": "mm"}]}
